Assay results from patent US11466013B2 (Betta Pharmaceuticals Co., LTD, priority 2018, dated 2022).

What was measured:
ERK1 = ERK1 (Homo sapiens, UniProt P27361); experiment: Kinase assay (Caliper, FAM-labeled peptide), ERK1; type: biochemical
Procedure: (§1) The compound was diluted to the desired concentration with DMSO, transferred 100 μL to a 96-well plate, and performed a gradient dilution 10 μL of compound from each well was taken and mixed with 90 μL of kinase buffer, and then transferred 5 μL from each well to a 384-well plate. Kinase and FAM-labeled peptide and ATP were added to 1× kinase alkaline buffer to obtain 2.5× enzyme solution and 2.5× peptide solution, 10 μL of 2.5× enzyme solution was added to the 384-well assay plate. After incubating for 10 minutes at room temperature, 10 μL of 2.5× peptide solution was added to the 384-well plate. After reacting for a specific time at […], 25 μL of termination buffer was added to stop reaction. After reading the collected data on Caliper, the data was converted to inhibition percentage. Inhibition percentage=(maximum value−conversion value)/(maximum value−minimum value)*100.
(§2) The “maximum” is the DMSO control, the “minimum” indicates the low control.
(§3) Graphpad Prism software was used to perform curve fitting and obtain IC50 value.

ERK2 = ERK2 (Homo sapiens, UniProt P28482); experiment: Kinase assay (Caliper, FAM-labeled peptide), ERK2; type: biochemical
Chain of ERK2 (P28482 whole entry): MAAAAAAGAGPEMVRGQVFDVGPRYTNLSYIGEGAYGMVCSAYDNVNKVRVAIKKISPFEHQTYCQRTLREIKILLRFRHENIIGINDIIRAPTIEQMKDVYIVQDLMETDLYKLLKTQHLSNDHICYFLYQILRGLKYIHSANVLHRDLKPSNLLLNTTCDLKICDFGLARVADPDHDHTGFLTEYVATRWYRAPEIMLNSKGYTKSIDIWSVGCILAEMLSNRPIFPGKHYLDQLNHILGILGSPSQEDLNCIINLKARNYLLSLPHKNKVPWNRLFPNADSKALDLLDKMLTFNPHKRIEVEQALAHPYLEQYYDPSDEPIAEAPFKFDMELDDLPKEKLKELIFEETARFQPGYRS
Procedure: as §1, §2, §3

Chain of ERK1 (P27361 whole entry): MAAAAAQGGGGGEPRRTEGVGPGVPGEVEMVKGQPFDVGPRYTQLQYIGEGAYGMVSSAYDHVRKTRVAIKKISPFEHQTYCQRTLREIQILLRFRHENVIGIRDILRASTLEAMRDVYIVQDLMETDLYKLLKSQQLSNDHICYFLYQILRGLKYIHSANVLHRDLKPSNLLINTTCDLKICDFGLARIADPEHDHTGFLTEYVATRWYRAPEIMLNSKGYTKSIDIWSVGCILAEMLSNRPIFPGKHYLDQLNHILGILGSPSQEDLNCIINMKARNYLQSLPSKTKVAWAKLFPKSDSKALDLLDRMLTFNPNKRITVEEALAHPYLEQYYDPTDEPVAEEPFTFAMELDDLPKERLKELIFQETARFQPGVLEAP

| SMILES | IC50 (ERK1) | IC50 (ERK2) |
| --- | --- | --- |
| CC(C)Nc1cc(-c2c[nH]c(C(=O)NCc3ccccc3CO)c2)c(Cl)cn1 [Example 1, 4-(5-chloro-2-(isopropylamino)pyridin-4-yl)-N-(2-(hydroxymethyl)benzyl)-1H-pyrrole-2-methyl amide] | 3 nM | 3.4 nM |
| CC(C)Nc1cc(-c2cnc(C(=O)NCc3ccccc3CO)s2)c(Cl)cn1 [Example 3, 5-(5-chloro-2-(isopropylamino)pyridin-4-yl)-N-(2-(hydroxymethyl)benzyl) thiazole-2-formamide] | 0.9 nM | 0.7 nM |
| CC(C)Nc1cc(-c2cnc(C(=O)NCc3ccc(F)cc3CO)s2)c(Cl)cn1 [Example 4, 5-(5-chloro-2-(isopropylamino)pyridin-4-yl)-N-(4-fluoro-2-(hydroxymethyl)benzyl) thiazole-2-formamide] | 1.8 nM | 1.8 nM |
| CC(C)Nc1cc(-c2cnc(C(=O)NCc3cccc(F)c3CO)s2)c(Cl)cn1 [Example 5, 5-(5-chloro-2-(isopropylamino)pyridin-4-yl)-N-(3-fluoro-2-(hydroxymethyl)benzyl) thiazole-2-formamide] | 1.5 nM | 1.2 nM |
| CC(C)Nc1cc(-c2cc3n(c2)CCN(Cc2ccccc2CO)C3=O)c(Cl)cn1 [Example 14, 7-(5-chloro-2-(isopropylamino)pyridin-4-yl)-2-(2-(hydroxymethyl)benzyl)-3,4-dihydropyrrolo[1,2-a] pyrazine-1(2H)-one] | 0.7 nM | 0.6 nM |
| CC(C)Nc1cc(-c2cc3n(c2)CCN(Cc2cc(F)c(F)cc2CO)C3=O)c(Cl)cn1 [Example 19, 7-(5-chloro-2-(isopropylamino)pyridine-4-yl)-2-(4,5-difluoro-2-(hydroxymethyl)benzyl)-3,4-dihydropyrrolo[1,2-a]pyrazine-1(2H)-one] | 0.3 nM | 0.6 nM |
| CC(C)Nc1cc(-c2cc3n(c2)CC2(CN(C)C2)CN(Cc2ccccc2CO)C3=O)c(Cl)cn1 [Example 25] | 1.3 nM | 0.84 nM |
| CC(C)Nc1cc(-c2cc3n(c2)CC2(COC(C)(C)OC2)CN(Cc2ccccc2CO)C3=O)c(Cl)cn1 [Example 26, 8-(5-Chloro-2-(isopropylamino)pyridin-4-yl)-2-(2-(hydroxymethyl)benzyl)-2′,2′-dimethyl-2,3-dihydro-1H,5H-spiro[pyrrolo[1,2-a][1,4]diazepine-4,5′-[1,3]dioxane]-1-one] | 1.3 nM | 1.4 nM |
| CC(C)Nc1cc(-c2cc3n(c2)CC2(COC(C)(C)OC2)CN(Cc2cc(F)ccc2CO)C3=O)c(Cl)cn1 [Example 28, 8-(5-chloro-2-(isopropylamino)pyridin-4-yl)-2-(5-fluoro-2-(hydroxymethyl)benzyl)-2′,2′-dimethyl-2,3-dihydro-1h,5h-spiro[pyrrolo [1,2-a][1,4]diazepine-4,5′-[1,3]dioxane]-1-one] | 0.9 nM | 1.6 nM |
| O=C1c2cc(-c3cc(NC4COC4)ncc3Cl)cn2CCN1Cc1cc(F)ccc1CO [Example 30, 7-(5-Chloro-2-(oxetan-3-ylamino)pyridin-4-yl)-2-(5-fluoro-2-(hydroxymethyl)benzyl)-3,4-dihydropyrrolo[1,2-a]pyrazine-1(2H)-one] | 0.31 nM | 0.2 nM |
| O=C1c2cc(-c3cc(NC4CCOC4)ncc3Cl)cn2CCN1Cc1cc(F)ccc1CO (centres unmarked) [Example 31, 7-(5-Chloro-2-((tetrahydrofuran-3-yl)amino)pyridin-4-yl)-2-(5-fluoro-2-(hydroxymethyl)benzyl)-3,4-dihydropyrrolo[1,2-a]pyrazine-1(2H)-one] | 0.3 nM | 0.32 nM |
| Cc1cnc(NC2COC2)nc1-c1cc2n(c1)CCN(Cc1cc(F)ccc1CO)C2=O [Example 32, 2-(5-Fluoro-2-(hydroxymethyl)benzyl)-7-(5-methyl-2-(oxetan-3-ylamino)pyrimidine-4-yl)-3,4-dihydropyrrolo[1,2-a]pyrazine-1(2H)-one] | 0.44 nM | 0.27 nM |
| COC[C@H]1Cn2cc(-c3cc(NC(C)C)ncc3Cl)cc2C(=O)N1Cc1cc(F)ccc1CO [Example 34, (R)-7-(5-chloro-2-(isopropylamino)pyridin-4-yl)-2-(5-fluoro-2-(hydroxymethyl)benzyl)-3-(methoxymethyl)-3,4-dihydropyrrolo[1,2-a]pyrazine-1(2H)-one] | 0.2 nM | 0.4 nM |
| CC(C)Nc1cc(-c2cc3n(c2)CC(CO)CN(Cc2cc(F)ccc2CO)C3=O)c(Cl)cn1 (centres unmarked) [Example 42, 8-(5-chloro-2-(isopropylamino)pyridin-4-yl)-2-(5-fluoro-2-(hydroxymethyl)benzyl)-4-(hydroxymethyl)-2,3,4,5-tetrahydro-1H-pyrrolo[1,2-a][1,4]diazepine-1-one] | 2.5 nM | 1.6 nM |
| CC(C)Nc1cc(-c2cc3n(c2)CC2(COCOC2)CN(Cc2cc(F)ccc2CO)C3=O)c(Cl)cn1 [Example 43, 8-(5-Chloro-2-(isopropylamino)pyridin-4-yl)-2-(5-fluoro-2-(hydroxymethyl)benzyl)-2,3-dihydro-1H,5H-spiro[pyrrolo[1,2-a][1,4]diazepine-4,5′-[1,3]dioxane]-1-one] | 0.6 nM | 0.5 nM |
| COC[C@H]1Cn2cc(-c3cc(NC(C)C)ncc3Cl)nc2C(=O)N1Cc1cc(F)ccc1CO [Example 46, (R)-2-(5-chloro-2-(isopropylamino)pyridin-4-yl)-7-(5-fluoro-2-(hydroxymethyl)benzyl)-6-(methoxymethyl)-6,7-dihydroimidazo[1,2-a]pyrazine-8-(5H)-one] | 2.8 nM | 1.4 nM |
| COC[C@H]1Cn2cc(-c3c(Cl)cnc(Nc4ccnn4C)c3F)cc2C(=O)N1Cc1cc(F)ccc1CO [Example 47, (H)-7-(5-chloro-3-fluoro-2-((1-methyl-1H-pyrazol-5-yl)amino)pyridin-4-yl)-2-(5-fluoro-2-(hydroxymethyl)benzyl)-3-(methoxymethyl)-3,4-dihydropyrrolo[1,2-a]pyrazine-1(2H)-ketone] | – | 0.9 nM |
| Cc1ccccc1Nc1ncc(C)c(-c2cc3n(c2)CCN(Cc2cc(F)ccc2CO)C3=O)n1 [Example 49] | 0.9 nM | 0.8 nM |
| COCC1(CO)CN(Cc2cc(F)ccc2CO)C(=O)c2cc(-c3cc(NC(C)C)ncc3Cl)cn2C1 (centres unmarked) [Example 56, 8-(5-chloro-2-(isopropylamino)pyridin-4-yl)-2-(5-fluoro-2-(hydroxymethyl)benzyl)-4-(hydroxymethyl)-4-(methoxymethyl)-2,3,4,5-4,5-tetrahydro-1h-pyrrolo [1,2-a][1,4]diazepine-1-one] | 0.95 nM | 0.64 nM |
| COC(=O)C1Cn2cc(-c3cc(NC(C)C)ncc3Cl)cc2C(=O)N1Cc1cc(F)ccc1CO (centres unmarked) [Example 57, Methyl 7-(5-chloro-2-(isopropylamino)pyridin-4-yl)-2-(5-fluoro-2-(hydroxymethyl)benzyl)-1-oxo-1,2,3,4-tetrahydropyrrolo [1,2-a]pyrazine-3-carboxylic acid ethyl ester] | 0.9 nM | 0.5 nM |
| CC(C)Nc1cc(-c2cc3n(c2)C[C@H](CO)N(Cc2cc(F)ccc2CO)C3=O)c(Cl)cn1 [Example 59, (R)-7-(5-chloro-2-(isopropylamino)pyridin-4-yl)-2-(5-fluoro-2-(hydroxymethyl)benzyl)-3-(hydroxymethyl)-3,4-dihydropyrrolo[1,2-a] pyrazine-1(2H)-one] | 0.51 nM | 0.49 nM |
| COC[C@H]1Cn2cc(-c3cc(NC4COC4)ncc3Cl)cc2C(=O)N1Cc1cc(F)ccc1CO [Example 60, (R)-7-(5-chloro-2-(oxacyclobutane-3-ylamino)pyridine-4-yl)-2-(5-fluoro-2-(hydroxymethyl)benzyl)-3-(methoxymethyl)-3,4-dihydropyrrolo[1,2-a] pyrazine-1(2H)-one] | 0.54 nM | 0.46 nM |
| COC[C@H]1Cn2cc(-c3cc(NC4CCOC4)ncc3Cl)cc2C(=O)N1Cc1cc(F)ccc1CO (stereo partly drawn) [Example 61, (3R)-7-(5-chloro-2-((tetrahydrofuran-3-yl)amino)pyridine-4-yl)-2-(5-fluoro-2-(hydroxymethyl)benzyl)-3-(methoxymethyl)-3,4-dihydropyrrolo[1,2-a] pyrazine-1(2H)-one] | 0.38 nM | 0.41 nM |
| COC[C@H]1Cn2cc(-c3cc(NC4CC(F)(F)C4)ncc3Cl)cc2C(=O)N1Cc1cc(F)ccc1CO [Example 63, (R)-7-(5-chloro-2-((3,3-difluorocyclobutyl)amino)pyridine-4-yl)-2-(5-fluoro-2-(hydroxymethyl)benzyl)-3-(methoxymethyl)-3,4-dihydropyrrolo[1,2-a] pyrazine-1(2H)-one] | 1.5 nM | 1.6 nM |
| COC[C@H]1Cn2cc(-c3cc(NCC(C)(C)O)ncc3Cl)cc2C(=O)N1Cc1cc(F)ccc1CO [Example 65, (R)-7-(5-chloro-2-((2-hydroxy-2-methylpropyl)amino)pyridine-4-yl)-2-(5-fluoro-2-(hydroxymethyl)benzyl)-3-(methoxymethyl)-3,4-dihydropyrrolo[1,2-a] pyrazine-1(2H)-one] | 0.97 nM | 1.6 nM |
| COC[C@H]1Cn2cc(-c3cc(Nc4c(C)cnn4C)ncc3Cl)cc2C(=O)N1Cc1cc(F)ccc1CO [Example 97, (R)-7-(5-chloro-2-((1,4-dimethyl-1h-pyrazole-5-yl)amino)pyridine-4-yl)-2-(5-fluoro-2-(hydroxymethyl)benzyl)-3-(methoxymethyl)-3,4-dihydropyrrolo[1,2-a] pyrazine-1(2H)-one] | – | 0.97 nM |
